# Data as given in patent US6683069B1, “Methods and compositions for reducing UV-induced inhibition of collagen synthesis in human skin” (Regents of the University of Michigan, priority 1998, dated 2004).
# Legend:
# [1] = system: Type III procollagen protein and pN collagen precursor protein; test: Western analysis of Type III procollagen protein and pN precursor protein in retinoic acid-pretreated, UV-exposed human skin; type: in vivo; conditions: 0.1% topical, FIG. 15
# Procedure: (§1) We tested whether retinoids, in particular all-trans retinoic acid, would have any effect on the loss of procollagen mRNA and/or the procollagen proteins in human skin after exposure to UV radiation. (Unless otherwise noted, the retinoic acid used in the experiments described herein was all-trans.) Separate areas of skin from each of our volunteers were treated with either 0.1% retinoic acid in vehicle or with vehicle alone; the vehicle was composed of a mixture of ethanol and polyethylene glycol in a 70:30 volumetric ratio. Thereafter, these areas of skin were exposed to 2 MEDs (typically) of UV radiation and then biopsied at specific times after the exposure; the biopsies were analyzed as described previously. […]
# (§2) Western analysis of proteins. Type I procollagen and pN collagen precursor protein, as well as Type III procollagen were detected in skin extracts by Western analysis as described by G. J. Fisher et al. (in “Immunological identification and functional quantitation of retinoic acid and retinoid X receptor proteins in human skin,” J. Biol. Chem., 269:20629-20635 (1994)).
# (§3) Immunoreactive proteins were visualized by enhanced chemiluminescence detection and quantified by laser densitometry, or by enhanced chemifluorescence detection and quantified by a Storm imager (Molecular Dynamics, Sunnyvale, Calif.).
# [2] = system: Type I procollagen and pN collagen precursor protein; test: Western analysis of Type I procollagen protein and pN precursor protein in retinoic acid-pretreated, UV-exposed human skin; type: in vivo; conditions: 0.1% topical, FIG. 12
# Procedure: We tested whether retinoids, in particular all-trans retinoic acid, would have any effect on the loss of procollagen mRNA and/or the procollagen proteins in human skin after exposure to UV radiation. (Unless otherwise noted, the retinoic acid used in the experiments described herein was all-trans.) Separate areas of skin from each of our volunteers were treated with either 0.1% retinoic acid in vehicle or with vehicle alone; the vehicle was composed of a mixture of ethanol and polyethylene glycol in a 70:30 volumetric ratio. Thereafter, these areas of skin were exposed to 2 MEDs (typically) of UV radiation and then biopsied at specific times after the exposure; the biopsies were analyzed as described previously. The site of the volunteers' skin to be exposed to UV radiation was treated prior to UV exposure with either the all-trans retinoic acid or the control vehicle. […] Nevertheless, it should be understood that a period of pretreatment with retinoid more than eight and less than twenty-four hours before UV exposure may likely be sufficient to prevent the reduction in collagen biosynthesis we have observed. Furthermore, it should be understood that in all of the following examples treatment with a retinoid (e.g., “retinoic acid-treated”) or the vehicle (e.g.,. “vehicle-treated”) should each be understood as pretreatment 24 hours before UV exposure. […]
# as §2, §3
# [3] = system: Type I procollagen protein; test: Immunohistological staining for Type I procollagen protein in biopsies of retinoid-pretreated, UV-exposed human skin; type: in vivo; conditions: 0.1% topical
# Procedure: as §1
# (§4) Immunohistology: Immunihistology of Type I and Type III pN collagens was performed as has been described by Griffiths, C. […] Type I pN collagen was detected with mouse monoclonal IgG1 antibody (SP1.D8; available from Univ. of Iowa Dept. of Biological Sciences Developmental Studies Hybridoma Bank, Iowa City, Iowa) raised against the aminopropeptide region of human Type I procollagen (Foellmer, H. G., et al., Euro. J. Biochm., 134:183-189 (1983)). Type III pN collagen was detected with affinity-purified rabbit polyclonal antibody to aminopropeptide of Type III procollagen (identical to that used for Western analysis). […]
# [4] = system: Type III procollagen protein; test: Immunohistological staining for Type III procollagen protein in biopsies of retinoid-pretreated, UV-exposed human skin; type: in vivo; conditions: 0.1% topical, pretreatment 24 h before 2 MEDs UV, biopsy 24 h after exposure; FIG. 14D
# Procedure: as §1, §4
# Type I procollagen mRNA = test: In situ hybridization for Type I procollagen mRNA in biopsies of retinoid-pretreated, UV-exposed human skin; type: in vivo; conditions: 0.1% topical
# Procedure: as §1, with “previously. The site of the volunteers' skin to be exposed to UV radiation was treated prior to UV exposure with either the all-trans retinoic acid or the control vehicle.” for “previously.”
# (§5) In Situ Hybridization: Digoxigenin-containing sense and antisense riboprobes to detect human type I and Type III procollagen RNA (mRNA) were synthesized with the use of T3 and T7 ribonucleic acid polymerases. […] Hybridization signals were detected immunohistochemically with the use of alkaline phosphatase-conjugated antidigoxigenin antibody.
# [5] = system: Type III procollagen mRNA; test: In situ hybridization for Type III procollagen mRNA in biopsies of retinoid-pretreated, UV-exposed human skin; type: in vivo; conditions: 0.1% topical, pretreatment 24 h before UV; FIG. 13D
# Procedure: as §1, with “previously. The site of the volunteers' skin to be exposed to UV radiation was treated prior to UV exposure with either the all-trans retinoic acid or the control vehicle.” for “previously.”
# as §5
# soluble collagen = test: Soluble collagen (hydroxyproline content) in retinoid-pretreated, UV-exposed human skin in vivo; conditions: 0.1% topical
# Procedure: We tested whether retinoids, in particular all-trans retinoic acid, would have any effect on the loss of procollagen mRNA and/or the procollagen proteins in human skin after exposure to UV radiation. (Unless otherwise noted, the retinoic acid used in the experiments described herein was all-trans.) Separate areas of skin from each of our volunteers were treated with either 0.1% retinoic acid in vehicle or with vehicle alone; the vehicle was composed of a mixture of ethanol and polyethylene glycol in a 70:30 volumetric ratio. Thereafter, these areas of skin were exposed to 2 MEDs (typically) of UV radiation and then biopsied at specific times after the exposure; the biopsies were analyzed as described previously. The site of the volunteers' skin to be exposed to UV radiation was treated prior to UV exposure with either the all-trans retinoic acid or the control vehicle. […] Nevertheless, it should be understood that a period of pretreatment with retinoid more than eight and less than twenty-four hours before UV exposure may likely be sufficient to prevent the reduction in collagen biosynthesis we have observed. Furthermore, it should be understood that in all of the following examples treatment with a retinoid (e.g., “retinoic acid-treated”) or the vehicle (e.g.,. “vehicle-treated”) should each be understood as pretreatment 24 hours before UV exposure.
# We also assayed the biopsies from our volunteers for soluble collagen (measured as hydroxyproline content) in vehicle- and retinoid-treated skin, both before and after UV exposure. […] After UV exposure, the vehicle-treated skin (VEH+UV) had only about 40% of the soluble collagen as was present prior to exposure. The retinoid-treated area (RA+UV) still had reduced amounts of soluble collagen when compared with skin prior to UV exposure, yet the levels were almost twice what was found in the vehicle-treated/UV-exposed skin.
# As mentioned above, the area of the volunteers' skin to be treated with a retinoid prior to UV exposure was pretreated 24 hours prior to exposure. We pretreated certain volunteer's sun-protected skin with 0.1% all trans retinoic acid 8 hours prior to exposure to 2 MEDs of UV radiation. […] Thus, as mentioned above, to prevent UV-induced loss of collagen synthesis using a retinoid, pretreatment 24 hours before exposure yields the desired prophylactic effect, whereas pretreatment 8 hours before exposure yields no significant prophylaxis.
# Hydroxyproline Analysis: hydroxyproline analysis using the Amino Acid Analyzer Model 420H (Applied Biosystems, Foster City, Calif.) automates precolumn phenylthiocarbamyl-amino acid (PTC-AA) analysis. The Model 420H analyzer first hydrolyzes proteins to liberate free amino acids. Once hydrolyzed, the free amino acids are derivatized with phenylisothiocynanate (PITC) to form PTC-AA derivatives. A reverse-phase column in a temperature-controlled oven separates the PTC-AAs. Concentration of hydroxyproline in the skin extract was determined based upon a hydroxyproline standard.
# [6] = pretreatment 24 h before 2 MEDs UV, biopsy 24 h after exposure
compound,measurement,setting,value
CC1=C(/C=C/C(C)=C/C=C/C(C)=C/C(=O)O)C(C)(C)CCC1 [all-trans retinoic acid],"Amounts of Type III procollagen protein and pN precursor protein vs vehicle-treated skin, prior to UV exposure",[1]; no UV,essentially the same amounts
same,Amounts of Type III procollagen protein and pN precursor protein after UV vs control and retinoic acid-treated areas prior to exposure,"[1]; pretreatment 24 h before 2 MEDs UV, RA+UV",essentially the same amounts
same,"Amounts of Type I procollagen and pN precursor protein vs vehicle-treated skin, unexposed","[2]; no UV, vehicle normalized to 1.0",essentially the same amounts
same,"Type I procollagen protein after UV, relative to control",[2]; [6],greater than 80 % of the control
same,"pN collagen precursor protein (Type I) after UV, relative to control",[2]; [6],greater than 80 % of the control
same,"Type I procollagen protein staining vs vehicle-treated skin, prior to UV exposure","[3]; no UV, FIG. 11B vs 11A",no appreciable difference
same,Type I procollagen protein staining after UV vs before UV exposure,"[3]; pretreatment 24 h before 2 MED UV, biopsy 24 h after exposure, FIG. 11D","comparable, though slightly reduced"
same,Type III procollagen protein staining after UV vs prior to UV exposure,[4],almost the same pattern and intensity of staining
same,"Type I procollagen mRNA expression in fibroblasts vs vehicle-treated skin, prior to UV exposure","Type I procollagen mRNA; 24 h after treatment, no UV, FIG. 10B vs 10A",essentially the same in both
same,Type I procollagen mRNA expression after UV exposure,"Type I procollagen mRNA; pretreatment 24 h before UV, FIG. 10D",does not appear to evidence any loss in the mRNA signalling
same,Reduction in expression of Type III procollagen mRNA after UV exposure,[5],"little, if any, reduction"
same,"Soluble collagen (hydroxyproline content) vs vehicle-treated skin, prior to UV exposure","soluble collagen; 24 h pretreatment, no UV, FIG. 16",about the same
same,"Soluble collagen (hydroxyproline content) vs vehicle-treated skin, without UV exposure","soluble collagen; after 8 hours, no UV, FIG. 17",the same
same,Soluble collagen (hydroxyproline content) 24 hours after UV exposure vs vehicle-treated skin,"soluble collagen; pretreatment 8 hours before 2 MEDs UV, FIG. 17",essentially the same
same,"Soluble collagen (hydroxyproline content) after UV, relative to vehicle-treated/UV-exposed skin","soluble collagen; pretreatment 24 h before UV, RA+UV, FIG. 16",almost twice
same,Prevention of UV-induced reduction in collagen biosynthesis,soluble collagen; pretreatment 24 hours before UV exposure,a reduction in collagen biosynthesis was prevented
same,Prevention of UV-induced reduction in collagen synthesis,soluble collagen; pretreatment eight hours before UV exposure,did not appear to significantly prevent reduction in collagen synthesis
